One data set concerns dogs. The data set can be described thus: Induction of methaemoglobin formation in dogs dosed orally. The class given is in vivo, dog. The following applies: oral, 5 mg/kg. The source says: In copending European Application No. 88300281.8 (published 28th Sept., 1988 as EP 0284174 Al) it is disclosed that certain indazolone derivatives are effective as inhibitors of the enzyme 5-LO and thus of leukotriene biosyntheses.

Data set [1] addresses T1, 5-LO (Cavia porcellus, UniProt A0A286X958).
T1 construct: cell free system using 5-LO isolated from guinea pig neutrophils; endogenous in cells; host or cells: guinea pig neutrophils
T1 sequence (A0A286X958 1-674): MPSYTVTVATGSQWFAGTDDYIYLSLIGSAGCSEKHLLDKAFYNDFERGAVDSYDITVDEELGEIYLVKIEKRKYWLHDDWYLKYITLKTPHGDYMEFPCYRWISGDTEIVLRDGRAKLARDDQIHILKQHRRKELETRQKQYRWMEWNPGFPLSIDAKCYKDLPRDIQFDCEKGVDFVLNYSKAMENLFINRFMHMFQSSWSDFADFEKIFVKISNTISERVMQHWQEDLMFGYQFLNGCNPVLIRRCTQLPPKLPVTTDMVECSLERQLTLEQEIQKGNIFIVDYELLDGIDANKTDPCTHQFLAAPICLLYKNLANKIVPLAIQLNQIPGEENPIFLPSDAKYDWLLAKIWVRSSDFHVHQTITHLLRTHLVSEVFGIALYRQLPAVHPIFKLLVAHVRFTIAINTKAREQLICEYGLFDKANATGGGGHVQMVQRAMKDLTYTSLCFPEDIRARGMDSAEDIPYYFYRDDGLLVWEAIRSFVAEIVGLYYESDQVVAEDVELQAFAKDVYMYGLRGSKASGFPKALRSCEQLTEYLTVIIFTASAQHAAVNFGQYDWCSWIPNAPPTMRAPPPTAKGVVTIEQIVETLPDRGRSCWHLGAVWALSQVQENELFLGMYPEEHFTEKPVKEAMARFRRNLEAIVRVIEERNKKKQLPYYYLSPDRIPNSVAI
The data set can be described thus: Test (a): in vitro spectrophotometric cell-free enzyme assay, 5-LO isolated from guinea pig neutrophils. The settings on record: 5-LO from guinea pig neutrophils. The class given is biochemical. The source says: (a) An in vitro spectrophotometric enzyme assay system, which assesses the inhibitory properties of a test compound in a cell free system using 5-LO isolated from guinea pig neutrophils and as described by D. Aharony and R. L. Stein (J. Biol. Chem., 1986, 261(25), 11512-11519). This test provides a measure of the intrinsic inhibitory properties against soluble 5-LO in an extracellular environment.

In data set [2] the target is T2, 5-LO (Rattus norvegicus, UniProt P12527).
T2 sequence (P12527 1-673): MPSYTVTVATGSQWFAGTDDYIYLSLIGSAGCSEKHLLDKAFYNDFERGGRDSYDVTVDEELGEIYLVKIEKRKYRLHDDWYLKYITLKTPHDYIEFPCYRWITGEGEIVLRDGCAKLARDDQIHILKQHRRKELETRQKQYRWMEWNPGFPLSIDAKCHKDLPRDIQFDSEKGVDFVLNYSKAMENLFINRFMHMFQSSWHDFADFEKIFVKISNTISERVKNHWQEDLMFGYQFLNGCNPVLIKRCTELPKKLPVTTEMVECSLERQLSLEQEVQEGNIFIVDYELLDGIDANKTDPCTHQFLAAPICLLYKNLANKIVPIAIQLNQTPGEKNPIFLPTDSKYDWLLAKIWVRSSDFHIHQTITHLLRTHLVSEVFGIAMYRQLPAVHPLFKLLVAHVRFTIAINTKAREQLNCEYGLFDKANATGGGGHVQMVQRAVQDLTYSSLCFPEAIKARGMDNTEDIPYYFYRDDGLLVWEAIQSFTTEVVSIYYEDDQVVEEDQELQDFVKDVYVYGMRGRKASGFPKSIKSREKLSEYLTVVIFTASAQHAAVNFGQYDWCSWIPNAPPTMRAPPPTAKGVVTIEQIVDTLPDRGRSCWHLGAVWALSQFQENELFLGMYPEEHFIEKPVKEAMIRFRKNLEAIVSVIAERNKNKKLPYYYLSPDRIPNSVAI
The experiment in a line: Test (b): heparinised rat blood challenged with A23187, LTB4 radioimmunoassay. It counts as cell-based. Details: incubating a test compound with heparinised rat blood; from tissue; host or cells: heparinised rat blood. As for the experimental part: (§1) (b) An in vitro assay system involving incubating a test compound with heparinised rat blood, prior to challenge with the calcium ionophore A23187 and then indirectly measuring the inhibitory effects on 5-LO by assaying the amount of LTB4 using the specific radioimmunoassay described by Carey and Forder (F. Carey and R. A. Forder, Brit. J. Pharmacol. 1985, 84, 34P) which involves the use of a protein-LTB4 conjugate produced using the procedure of Young et alia Prostaglandins, 1983, 26(4), 605-613). The effects of a test compound on the enzyme cyclooxygenase (which is involved in the alternative metabolic pathway for arachidonic acid and gives rise to prostaglandins, thromboxanes and related metabolites) may be measured at the same time using the specific radioimmunoassay for prostaglandin E2 (PGE2) described by Carey and Forder (see above). This test provides an indication of the effects of a test compound against 5-LO and also cyclooxygenase in the presence of blood cells and proteins. It permits the selectivity of the inhibitory effect on 5-LO or cyclooxygenase to be assessed.

Data set [3] has as its target T2, 5-LO. The data set can be described thus: Test (c): ex vivo assay, oral dosing, blood challenged with A23187, LTB4 radioimmunoassay. It counts as in vivo. Details: blood collection, heparinisation, challenge with A23187 and radioimmunoassay of LTB4 and PGE2; from tissue; host or cells: blood of dosed animals, heparinised ex vivo. The settings on record: A23187 challenge. The procedure: (c) An ex vivo assay system, which is a variation of test b) above, involving administration of a test compound (usually orally as the suspension produced when a solution of the test compound in dimethylsulphoxide is added to carboxymethylcellulose), blood collection, heparinisation, challenge with A23187 and radioimmunoassay of LTB4 and PGE2. This test provides an indication of the bioavailability of a test compound as an inhibitor of 5-LO or cyclooxygenase.

The target in the next data set is T3, cyclooxygenase (Rattus norvegicus, UniProt Q63921).
T3 construct: incubating a test compound with heparinised rat blood; from tissue; host or cells: heparinised rat blood
T3 sequence (Q63921 27-602): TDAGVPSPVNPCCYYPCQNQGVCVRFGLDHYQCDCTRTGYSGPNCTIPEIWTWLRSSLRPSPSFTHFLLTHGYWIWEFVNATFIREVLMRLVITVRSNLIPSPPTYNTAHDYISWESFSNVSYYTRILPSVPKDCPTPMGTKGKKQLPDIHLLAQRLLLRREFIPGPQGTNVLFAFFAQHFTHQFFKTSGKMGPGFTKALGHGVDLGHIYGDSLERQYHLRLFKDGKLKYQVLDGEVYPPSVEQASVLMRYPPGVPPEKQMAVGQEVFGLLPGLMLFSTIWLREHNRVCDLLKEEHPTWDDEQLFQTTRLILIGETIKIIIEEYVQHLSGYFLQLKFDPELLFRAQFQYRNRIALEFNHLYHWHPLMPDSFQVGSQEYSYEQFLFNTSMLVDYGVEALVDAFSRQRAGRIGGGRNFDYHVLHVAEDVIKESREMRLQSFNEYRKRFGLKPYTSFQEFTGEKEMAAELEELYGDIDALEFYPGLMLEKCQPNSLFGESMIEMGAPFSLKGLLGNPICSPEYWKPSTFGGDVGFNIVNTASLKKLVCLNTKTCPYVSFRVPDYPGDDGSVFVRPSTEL
The data set can be described thus: Test (b): heparinised rat blood challenged with A23187, PGE2 radioimmunoassay. The class given is cell-based. As for the experimental part: as §1

SMILES strings stand for the structures.

As for `O=c1c2ccccc2[nH]n1Cc1cccnc1` [1,2-dihydro-2-(3-pyridylmethyl) 3H indazol-3-one], the “induction of methaemoglobin formation” value in the data set with dogs is “causes induction of methaemoglobin formation”.

As for `CCCCCNC(=O)c1cccc2[nH]n(C)c(=O)c12` [Example 5, 1,2-dihydro-2-methyl-4-(N-n-pentylcarbamoyl)-3H-indazol-3-one], the IC50 against 5-LO [1] worked out at 3.1 µM; on 5-LO [2] it was 1400 nM; against cyclooxygenase it was 72 µM. On 5-LO [3], this compound came in with a median effective dose (ED50) of 30 to 100 mg/kg.

The IC50 is the midpoint of a concentration-inhibition curve. Read a low IC50 as greater potency in that assay. By ED50 is commonly meant the midpoint of the dose-response relation. A lower ED50 goes with an effect at a small dose.

Values taken from patent publication US5036083A, “Heterocyclic agents” (ICI Pharma, priority 1988, dated 1991).
